Measurements as given in PMC12491518, “Fabrication of cytotoxic mirror image nanopores” (Nature Communications, 2025).
Where a SMILES comes first, the peptide text is derived from it. [ ]: non-standard residue; d: D form.

Assays:
[1] = Ion selectivity measurement under asymmetric KCl (reverse potential, Goldman-Hodgkin-Katz); type: biochemical; details: 0.15 M KCl cis / 1 M KCl trans
Protocol: High-resolution electrical recordings for the single-channel characterization were conducted in planar lipid bilayers made up of 1,2-diphytanoyl-sn-glycero-3-phosphocholine (DPhPC, Avanti Polar Lipids)[23],[27],[51]. The lipid bilayer is formed across a polytetrafluoroethylene (Teflon) aperture of ~100 µm in diameter. Teflon is placed between the two sides of the Delrin bilayer chamber, partitioning it into cis and trans compartments (600 µL each). For constructing a solvent-free lipid bilayer, the aperture is made lipophilic by pre-painting both sides with hexadecane in n-pentane (1 μL, 5 mg mL^−1)[51]. After ~10 min, the chambers were filled with buffered electrolytes (1 M KCl, 10 mM HEPES, pH 7.4), and DPhPC in n-pentane (1 μL, 5 mg mL^−1) was added. After ~15 min incubation, the lipid bilayer is formed by raising and lowering the electrolyte solution, bringing the two lipid monolayers together at the aperture. […] Ion selectivity was assessed under asymmetric salt conditions with a KCl concentration gradient across the planar lipid bilayer (0.15 M cis/1 M trans) (SI text)[27]. The ion current was acquired and amplified using an Axopatch 200B amplifier, digitized with Digidata 1550B digitizer, and recorded using the pClamp 11 acquisition software (Molecular Devices, CA). […]

MDA-MB-231 cells = assay: Cell membrane integrity by CellMask Deep Red staining; type: cell-based, human; details: 25 µM, 24 h
Protocol: MDA-MB-231 cells were seeded in a 24-well plate (Thermo Fisher Scientific, 142475) containing sterilized coverslips (Blue star, Microscopic cover glass circular 12 mm 10 gm) at a cell density of 3 × 10^4 cells per well. 24 h post-seeding, cells were treated with DpPorA DE peptide, 5-FAM-DpPorA DE peptide, or a corresponding concentration of DDM. After 24 h of treatment, cells were stained with CellMask Deep Red (Thermo Fisher Scientific, C10046; 1:4000 dilution in PBS) for 5 min at 37 °C. After membrane staining, the cells were washed with PBS and fixed in 2% PFA (Himedia, TCL119) for 5 min. After PBS wash, the coverslips were carefully removed from the wells and mounted with ProLong™ Gold Antifade Mountant (Invitrogen, P10144). The cells were immediately visualized within 60 min using the Carl Zeiss Axio Observer fluorescence microscope. Fluorescence was quantified by drawing the ROI around individual cells to measure the green channel intensity (5-FAM-DpPorA DE). Integrated Density was measured using ImageJ software for 50 cells per group. […]
g) Preparation of DDM and peptides for testing on cancer cells
Lyophilized DpPorA, LpPorA, DpPorA DE, LpPorA DE and 5-FAM-DpPorA DE were reconstituted in 0.1% DDM [1 µL of 100 µg mL-1 DDM (Sigma-Aldrich Merck, D5172) in PBS (Gibco - 14040)], resulting in a peptide concentration of 1.7 mM. Subsequent concentrations were diluted with DMEM, 10% FBS, and 1% Penicillin /Streptomycin-containing media. (Supplementary Table 2) h) Cell membrane integrity analysis and statistics
Immunofluorescence (IF) images were analyzed to assess the impact of different treatments on cell membrane integrity. Cells were categorized into Intact and Disrupted groups based on membrane integrity observed by CellMask cell membrane staining. We evaluated a t least 100 cells for each group - Control, DDM-treated cells and peptide-treated cells- with independent analysis done by a student blinded to the groups' identity . […]
indicating a loss of cell membrane integrity. This categorization provided a clear and systematic approach to quantify the effects of various treatments on cell membrane integrity.
For three independent experiments, data in bar graphs represent mean (± standard deviation) fold change relative to Control groups. Differences between the two datasets were assessed using Welch’s test. Statistical significance is indicated as: *p<0.05, **p<0.01, ***p<0.001,

## CC[C@@H](C)[C@@H](NC(=O)[C@H](N)CCSC)C(=O)N[C@H](CC(=O)O)C(=O)N[C@H](CCC(N)=O)C(=O)N[C@@H](C(=O)N[C@@H](C(=O)N[C@H](CCC(=O)O)C(=O)N[C@@H](C(=O)N[C@H](Cc1ccccc1)C(=O)NCC(=O)N[C@H](CCC(N)=O)C(=O)N[C@H](CC(C)C)C(=O)NCC(=O)N[C@@H](C(=O)N[C@H](Cc1ccccc1)C(=O)N[C@H](CC(C)C)C(=O)NCC(=O)NCC(=O)N[C@H](Cc1ccccc1)C(=O)NCC(=O)N[C@H](CC(N)=O)C(=O)N[C@@H](C(=O)N[C@H](Cc1ccccc1)C(=O)N[C@H](CCCCN)C(=O)NCC(=O)N[C@H](CC(C)C)C(=O)N[C@H](CCCCN)C(=O)N[C@H](C)C(=O)N[C@@H](C(=O)N[C@@H](C(=O)N[C@H](C)C(=O)N[C@@H](C(=O)N[C@@H](C(=O)N[C@@H](C(=O)N[C@H](CCCCN)C(=O)N[C@H](Cc1c[nH]c2ccccc12)C(=O)N[C@@H](C(=O)N[C@H](C)C(=O)N[C@H](C)C(=O)N[C@H](CCCCN)C(=O)O)[C@H](C)O)C(C)C)[C@H](C)CC)[C@H](C)O)[C@H](C)CC)C(C)C)[C@H](C)CC)[C@H](C)O)[C@H](C)CC)[C@H](C)O)[C@H](C)CC [DpPorA DE] (H-[dM][dI][dD][dQ][dI][dT][dE][dI][dF]G[dQ][dL]G[dT][dF][dL]GG[dF]G[dN][dI][dF][dK]G[dL][dK][dA][dV][dI][dA][dT][dI][dV][dK][dW][dT][dA][dA][dK]-OH; N-terminus and C-terminus assumed)
[1]
  reverse potential (Vm): +40 mV
MDA-MB-231 cells
  Cell number, Disrupted phenotype: 158
  Cell number, Intact phenotype: 1
MDA-MB-231 cells; at least 100 cells
  cells with Disrupted membrane phenotype: 99.37%
  cells with Intact membrane phenotype: 0.63%

## CC[C@@H](C)[C@@H](NC(=O)[C@H](N)CCSC)C(=O)N[C@H](CC(=O)O)C(=O)N[C@H](CCC(N)=O)C(=O)N[C@@H](C(=O)N[C@@H](C(=O)N[C@H](CCC(=O)O)C(=O)N[C@@H](C(=O)N[C@H](Cc1ccccc1)C(=O)NCC(=O)N[C@H](CCC(N)=O)C(=O)N[C@H](CC(C)C)C(=O)NCC(=O)N[C@@H](C(=O)N[C@H](Cc1ccccc1)C(=O)N[C@H](CC(C)C)C(=O)NCC(=O)NCC(=O)N[C@H](Cc1ccccc1)C(=O)NCC(=O)N[C@H](CC(N)=O)C(=O)N[C@@H](C(=O)N[C@H](Cc1ccccc1)C(=O)N[C@H](CCCCN)C(=O)NCC(=O)N[C@H](CC(C)C)C(=O)N[C@H](CCCCN)C(=O)N[C@H](CC(=O)O)C(=O)N[C@@H](C(=O)N[C@@H](C(=O)N[C@H](CCC(=O)O)C(=O)N[C@@H](C(=O)N[C@@H](C(=O)N[C@@H](C(=O)N[C@H](CCCCN)C(=O)N[C@H](Cc1c[nH]c2ccccc12)C(=O)N[C@@H](C(=O)N[C@H](C)C(=O)N[C@H](C)C(=O)N[C@H](CCCCN)C(=O)O)[C@H](C)O)C(C)C)[C@H](C)CC)[C@H](C)O)[C@H](C)CC)C(C)C)[C@H](C)CC)[C@H](C)O)[C@H](C)CC)[C@H](C)O)[C@H](C)CC [DpPorA] (H-[dM][dI][dD][dQ][dI][dT][dE][dI][dF]G[dQ][dL]G[dT][dF][dL]GG[dF]G[dN][dI][dF][dK]G[dL][dK][dD][dV][dI][dE][dT][dI][dV][dK][dW][dT][dA][dA][dK]-OH; N-terminus and C-terminus assumed)
[1]
  reverse potential (Vm): +21 mV
